Experimental data taken from patent publication US7514240B2, “EGR-EGFR complex” (Japan Science and Technology Agency, priority 2002, dated 2009).

Key:
[1] = target: T1, EGFR (A431 cell) (Homo sapiens, UniProt P00533); experiment: EGF-EGFR binding inhibition assay (Eu-EGF, A431 cells, DELFIA time-resolved fluorescence); conditions: Eu-EGF 5 nmol/L, compounds at 1, 3, 10 and 30 μg/mL, nonlinear least square fitting
T1 construct: host or cells: A431 cells
Procedure: A431 cells (human squamous cell carcinoma cells, purchased from ATCC) for use in this experiment were subcultured using a medium (hereinafter denoted as a medium) prepared by adding inactivated FBS (JRH), Penicillin-streptmycin (GIBCO), and Amphotelicin B (Sigma) at final concentrations of 10 vol %, 50 U/mL-50 μg/mL, and 1 μg/mL, respectively, to DMEM (Sigma). A431 cells suspended in the medium were inoculated into a 96-well microtiter plate (black, COSTAR) at 10,000 cells/100 μL/well, and then pre-cultured overnight in a CO2 incubator (37° C., 5% CO2). After the media within the wells had been completely removed, the wells were washed once in 50 mmol/L HEPES-HCl (pH 7.8, hereinafter denoted as a Buffer) containing 138 mmol/L NaCl, 5 mmol/L KCl, 1.2 mmol/L MgSO4, 1.2 mmol/L CaCl2, 75 μmol/L EDTA and 0.2 vol % BSA, and then a Buffer was added at 49 μL/well. Subsequently, DMSO was added at 1 μL/well, and then Eu-EGF that had been diluted with a Buffer at various concentrations were added at 50 μL/well. The plate was incubated at room temperature for 1 hour, washed 5 times with an ice-cold buffer (200 μL/well), and then a DELFIA enhancement reagent (PerkinElmer life sciences) was added at 100 μL/well. After further 30 minutes of incubation at room temperature, time-resolved fluorescence was measured using a plate reader (ARVO-sx, PerkinElmer life sciences). Excitation wavelength and emission wavelength used herein were 340 nm and 615 nm, respectively.
A value of specific binding was calculated by subtracting a measured value of non-specific binding from a value measured at each ligand concentration. […]
A representative compounds for site 1 of 2) in Example 6, a representative compounds for site 2 of 2) in Example 6, and a representative compounds for site 3 of 1) in Example 6 were subjected to this assay. […] After 30 minutes of incubation at room temperature, time-resolved fluorescence was measured using a plate reader (ARVO-sx, PerkinElmer life sciences). […] Assay was run in duplicate, and then data were processed using each average measured value. […]

[2] = target: T2, EGF receptor of A431 cells (Homo sapiens, UniProt P00533); experiment: EGFR antagonist activity using EGFR phosphorylation as an index (western blotting); format: cell-based; conditions: EGF 100 ng/mL
T2 construct: endogenous in cells; host or cells: A431 cells
T2 sequence (P00533 25-1210): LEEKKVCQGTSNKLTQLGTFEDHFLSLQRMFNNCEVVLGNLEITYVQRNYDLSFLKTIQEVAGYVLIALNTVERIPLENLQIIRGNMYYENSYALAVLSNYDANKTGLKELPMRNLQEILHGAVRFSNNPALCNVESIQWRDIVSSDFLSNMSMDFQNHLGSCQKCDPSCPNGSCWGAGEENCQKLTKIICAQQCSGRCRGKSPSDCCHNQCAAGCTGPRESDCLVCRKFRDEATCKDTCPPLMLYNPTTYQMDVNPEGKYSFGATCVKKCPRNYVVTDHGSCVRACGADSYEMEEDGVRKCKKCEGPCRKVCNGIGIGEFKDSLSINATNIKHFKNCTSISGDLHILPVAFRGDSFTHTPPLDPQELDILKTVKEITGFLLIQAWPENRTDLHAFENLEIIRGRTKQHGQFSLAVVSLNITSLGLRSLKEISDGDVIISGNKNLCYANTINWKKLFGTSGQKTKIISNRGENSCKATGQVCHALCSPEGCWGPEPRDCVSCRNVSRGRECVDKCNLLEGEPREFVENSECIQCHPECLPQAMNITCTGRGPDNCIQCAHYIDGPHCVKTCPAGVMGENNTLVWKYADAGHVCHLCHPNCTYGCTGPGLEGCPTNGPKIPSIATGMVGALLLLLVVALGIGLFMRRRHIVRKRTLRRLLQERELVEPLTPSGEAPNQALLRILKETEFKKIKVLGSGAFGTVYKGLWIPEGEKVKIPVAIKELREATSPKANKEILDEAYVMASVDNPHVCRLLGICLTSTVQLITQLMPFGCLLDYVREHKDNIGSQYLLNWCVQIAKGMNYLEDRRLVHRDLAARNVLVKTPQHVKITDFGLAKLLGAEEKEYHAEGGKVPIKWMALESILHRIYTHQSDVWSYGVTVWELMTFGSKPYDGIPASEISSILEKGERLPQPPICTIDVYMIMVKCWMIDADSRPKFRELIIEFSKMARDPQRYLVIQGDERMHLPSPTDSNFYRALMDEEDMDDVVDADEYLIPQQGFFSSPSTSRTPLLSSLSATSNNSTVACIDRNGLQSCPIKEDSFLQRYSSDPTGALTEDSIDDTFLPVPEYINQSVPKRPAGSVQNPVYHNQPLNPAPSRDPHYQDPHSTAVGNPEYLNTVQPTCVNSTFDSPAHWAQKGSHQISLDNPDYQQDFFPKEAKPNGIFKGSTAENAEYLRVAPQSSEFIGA
Procedure: When EGFR is activated by binding of a ligand, intracellular regions are phosphorylated. This phosphorylation is detectable using a phosphorylated receptor-specific antibody. A431 cells were cultured (BNR-110M, ESPEC CORP.) using Dulbecco's Modified Eagle's Medium (Sigma) containing 10% fetal calf serum (JRH Bioscience) under an environment of 5% CO2 at 37° C. for 1 day. The cells were then cultured in a serum-free medium for 1 day. When agonist activity was assayed, a medium containing a sample at a concentration of 10 μg/mL was added, and then the resultant was allowed to stand for 10 minutes. Furthermore, when antagonist activity was assayed, a medium containing a sample at a concentration of 10 μg/mL or 100 μg/mL was added, and then the resultant was allowed to stand for 20 minutes. […] The media were removed, the cells were washed with cooled phosphate buffered saline (PBS, Sigma), and then a heated cell lysis buffer (125 mmol/L Tris (Wako Pure Chemical Industries, Ltd.)-hydrochloric acid (Wako Pure Chemical Industries, Ltd.) buffer (pH 6.8) containing 20% glycerol (Wako Pure Chemical Industries, Ltd.), 2% SDS (Sigma), 5% 2-Mercaptoethanol (Sigma), and 0.025 mg/mL Bromo Phenol Blue (Sigma)) was added, thereby obtaining a cell lysate solution. The obtained cell lysate was applied to 7.5% polyacrylamide gel (e-PAGEL, ATTO Corporation), and then subjected to separation by electrophoresis (AE-6400, ATTO Corporation) under a condition of 30 mA per sheet of gel using Tris/glycine/SDS buffer (Bio-Rad Laboratories, Inc.). The resultant was transferred to a polyvinylidene difluoride (PVDF) membrane (clear blot membrane-P, ATTO Corporation) under conditions of 200 mA for 1 hour using semi-dry blotting system (AE-6675, ATTO Corporation). The PVDF membrane was blocked using PBS containing 5% skim milk (Wako Pure Chemical Industries, Ltd.) at room temperature for 1 hour.

T1 sequence (P00533 25-1210): as above

IC50 [1] | inhibition of activation of the EGF receptor due to EGF (EGFR phosphorylation) ([2]; sample 100 μg/mL) | inhibition of activation of the EGF receptor due to EGF (EGFR phosphorylation) ([2]; sample 10 μg/mL) | SMILES
57.8 µM | inhibited activation of the EGF receptor | – | CCc1cc2c(cc1C(=O)CSc1ncccc1C(=O)O)C(C)(C)CCC2(C)C [2-[2-(3-ethyl-5,5,8,8-tetramethyl-5,6,7,8-tetrahydro-naphthalene-2-yl)-2-oxo-ethylsulfanyl]-nicotinic acid]
40.1 µM | – | inhibited activation of the EGF receptor | CCCCCCSc1nc2c(c(=O)[nH]c(=O)n2C)n1CCC [8-hexylsulfanyl-3-methyl-7-propyl-3,7-dihydro-purine-2,6-dione]
16.7 µM | – | inhibited activation of the EGF receptor | CN1CCN(CCCN2c3ccccc3Sc3ccc(C(F)(F)F)cc32)CC1.Cl.Cl [10-[3-(4-methyl-piperazine-1-yl)-propyl]-2-trifluoromethyl-10H-phenothiazine dihydrochloride]
